Laboratory results taken from PMC11739978, “Next-Generation Carbazole-Linked 1,2,4-Triazole-Thione Derivatives: Strategic Design, Synthesis, Molecular Docking, and Evaluation of Antidiabetic Potential” (ACS Omega, 2024).
Where “and” joins values, the source holds several entries; their conditions need not be identical. Equal entries are not always repeated.

Tests used:
[1] = MTS cytotoxicity assay on LX-2 normal hepatic cells; settings: human, LX-2 hepatic stellate cells
LX-2 cells = assay: as above; settings: LX-2, 100 μM
[2] = tested on: STZ-induced diabetic mice; assay: In vivo hypoglycemic effect in mice with STZ-induced diabetes; settings: group III STZ-diabetic mice, fasting
Protocol: The Carbazole-triazole derivatives were tested in a laboratory setting to determine their ability to inhibit the enzyme α-amylase and α-glucosidase. […] Therefore, C5f was selected for further investigation of its ability to lower blood sugar levels in an in vivo study. This investigation sought to reveal the effect of C5f on blood glucose levels in mice with diabetes caused by Streptozotocin (STZ). This compound has a significant hypoglycemic effect in STZ-diabetic mice, similar to the effect reported in the control group (mice that were not treated), as shown in Figure 3. The mice were divided into three groups: group I: negative control mice without any treatment; Group II: positive control mice with STZ treatment only; and Group III: mice treated with STZ and then with our compound C5f.
The investigations conducted on mice adhered strictly to the protocols established by the Association for Assessment and Accreditation of Laboratory Animal Care International. The Institutional Review Board of the Animal House and Use Committee at An-Najah National University granted full ethical approval for the study (approval number: Med. September. 2022/2A). […]
The experiment entailed inducing diabetes intraperitoneally by administering streptozotocin (STZ) (i.p.). […] To determine the development of diabetes, the mice’s fasting blood glucose levels were evaluated 4 days following the injection of STZ. […]

| SMILES | viability at 24 h, 100 µM [1] [%] | lower cytotoxic activity compared to the positive control 5-FU (LX-2 cells) [fold] | blood glucose level after five doses of C5f ([2]; 10 mg/kg i.p. daily for 5 days, 10 mg/kg) | blood glucose level before C5f treatment ([2]; baseline after STZ induction) |
| --- | --- | --- | --- | --- |
| S=c1[nH]nc(Cn2c3ccccc3c3ccccc32)n1CCc1ccccc1 [C5s, 5-((9H-Carbazol-9-yl)methyl)-4-phenethyl-2,4-dihydro-3H-1,2,4-triazole-3-thione] | 37.8 | 3 |  |  |
| S=c1[nH]nc(Cn2c3ccccc3c3ccccc32)n1C1CC2CCC1C2 (stereo not drawn) [C5r, 5-((9H-Carbazol-9-yl)methyl)-4-(bicyclo[2.2.1]heptan-2-yl)-2,4-dihydro-3H-1,2,4-triazole-3-thione] | 64.5 |  |  |  |
| COc1ccc(-n2c(Cn3c4ccccc4c4ccccc43)n[nH]c2=S)cc1 [C5f, 5-((9H-Carbazol-9-yl)methyl)-4-(4-methoxyphenyl)-2,4-dihydro-3H-1,2,4-triazole-3-thione] | 63.6 |  | 216.15 mg/dL and 216.15 ± 3.45 mg/dL | 290.54 mg/dL and 290.54 ± 2.15 mg/dL |
| O=C(c1ccccc1)n1c(Cn2c3ccccc3c3ccccc32)n[nH]c1=S [C5o, (3-((9H-Carbazol-9-yl)methyl)-5-thioxo-1,5-dihydro-4H-1,2,4-triazol-4-yl)(phenyl)methanone] | 36.5 | 3 |  |  |
| S=c1[nH]nc(Cn2c3ccccc3c3ccccc32)n1-c1ccc(Cl)cc1 [C5h, 5-((9H-Carbazol-9-yl)methyl)-4-(4-chlorophenyl)-2,4-dihydro-3H-1,2,4-triazole-3-thione] | 65.3 to 85.3 |  |  |  |
| S=c1[nH]nc(Cn2c3ccccc3c3ccccc32)n1-c1ccc(Br)cc1 [C5g, 5-((9H-Carbazol-9-yl)methyl)-4-(4-bromophenyl)-2,4-dihydro-3H-1,2,4-triazole-3-thione] | 65.3 to 85.3 |  |  |  |
| S=c1[nH]nc(Cn2c3ccccc3c3ccccc32)n1C1CCCCC1 [C5m, 5-((9H-Carbazol-9-yl)methyl)-4-cyclohexyl-2,4-dihydro-3H-1,2,4-triazole-3-thione] | 65.3 to 85.3 |  |  |  |
| O=c1[nH]cc(F)c(=O)[nH]1 [5-Fu, 5-Fluorouracil, reference compound] | 13.4 |  |  |  |
